Measurements taken from ChEMBL document CHEMBL1152092, “A potent long-acting imidazole-5-acrylic acid angiotensin II AT-1 receptor antagonist” (Bioorg Med Chem Lett, 1994).

Tests used:
[1] = biological target: T1, Type-1 angiotensin II receptor B (Rattus norvegicus, UniProt P29089); assay: Tested for inhibition of [125I]- AII specific binding to rat mesenteric arteries, expressed as IC50
T1 sequence (P29089 whole entry): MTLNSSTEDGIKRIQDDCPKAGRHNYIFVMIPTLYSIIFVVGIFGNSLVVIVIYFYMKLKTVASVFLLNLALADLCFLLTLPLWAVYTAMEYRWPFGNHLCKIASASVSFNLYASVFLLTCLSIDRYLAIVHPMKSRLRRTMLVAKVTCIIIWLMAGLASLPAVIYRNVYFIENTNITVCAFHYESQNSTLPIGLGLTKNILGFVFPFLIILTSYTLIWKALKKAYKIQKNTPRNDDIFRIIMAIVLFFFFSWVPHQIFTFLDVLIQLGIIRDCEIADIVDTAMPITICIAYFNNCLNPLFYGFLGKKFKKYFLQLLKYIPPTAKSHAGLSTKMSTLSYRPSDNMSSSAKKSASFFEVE

Rattus norvegicus [2] = assay: Tested for the dose that produced a 50% inhibition of the pressor response to AII in conscious normotensive rats administered intravenously; format: functional; conditions: iv, read-out: ID50 (the source's name)
Oryctolagus cuniculus [3] = species on record: Oryctolagus cuniculus; assay: Tested for inhibition of AII-induced vasoconstriction of rabbit aorta; format: functional
Rattus norvegicus [4] = assay: Tested for time for the pressor response to AII to recover 50% of its initial effect after intraduodenal dosing of 30 mg/kg; format: functional, organism-based; design: dose 30 mg/kg
Rattus norvegicus [5] = assay: Tested for the dose that produced a 50% inhibition of the pressor response to AII in conscious normotensive rats administered intraduodenally; format: functional; conditions: intraduodenal, read-out: ID50 (the source's name)
Rattus norvegicus [6] = assay: Tested for time for the pressor response to AII to recover 50% of its initial effect after intraduodenal dosing of 10 mg/kg; format: functional, organism-based; design: dose 10 mg/kg
[7] = biological target: T2, Type-1 angiotensin II receptor (Homo sapiens, UniProt P30556); assay: Tested for Angiotensin II receptor, type 1 affinity in the absence of BSA
T2 sequence (P30556 whole entry): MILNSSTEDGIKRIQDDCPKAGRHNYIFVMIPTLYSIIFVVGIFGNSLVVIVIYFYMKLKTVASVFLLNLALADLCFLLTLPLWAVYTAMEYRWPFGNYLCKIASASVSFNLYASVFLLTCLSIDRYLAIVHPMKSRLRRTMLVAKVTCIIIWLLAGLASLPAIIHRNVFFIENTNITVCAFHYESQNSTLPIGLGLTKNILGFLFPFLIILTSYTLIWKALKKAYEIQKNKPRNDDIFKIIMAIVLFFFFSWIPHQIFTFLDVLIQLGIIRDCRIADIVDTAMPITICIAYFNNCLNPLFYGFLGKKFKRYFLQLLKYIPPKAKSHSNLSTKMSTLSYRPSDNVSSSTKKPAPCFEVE

[8] = biological target: T2, Type-1 angiotensin II receptor; assay: Tested for Angiotensin II receptor, type 1 affinity in the presence of 0.25% BSA
Oryctolagus cuniculus [9] = species on record: Oryctolagus cuniculus; assay: Tested for inhibition of AII-induced vasoconstriction of rabbit aorta measured at 30% inhibition; format: functional
Rattus norvegicus [10] = species on record: Rattus norvegicus; assay: Time required for effect of drug after washout of rat adrenal cortical membranes; format: functional
Canis familiaris [11] = assay: Tested for lowering of mean arterial blood pressure at a dose of 10 mg/kg id, in 2-kidney, 1-clip Goldblatt renin dependent hypertensive dog for more than 12 hours; format: functional, Canis lupus familiaris
Canis familiaris [12] = assay: Tested for po dose required to inhibit the pressor effect up to 20 hr in Angiotensin I infused dog; format: functional, Canis lupus familiaris
[13] = biological target: T2, Type-1 angiotensin II receptor; assay: Tested for binding affinity to Angiotensin II receptor, type 1
[14] = biological target: T2, Type-1 angiotensin II receptor; assay: Tested for Angiotensin II receptor, type 1 affinity in the presence of 0.25% bovine serum albumin (BSA)
[15] = biological target: T2, Type-1 angiotensin II receptor; assay: Tested for Angiotensin II receptor, type 1 affinity in the absence of bovine serum albumin (BSA)
Canis familiaris [16] = assay: Tested for po dose required to inhibit the pressor effect up to 14 hr in Angiotensin I infused dog; format: functional, Canis lupus familiaris

SMILES | IC50 [1] | ED50 (Rattus norvegicus [2]) | Kb (Oryctolagus cuniculus [3]) | ED50 (Rattus norvegicus [5]) | T1/2 (Rattus norvegicus [6]) | other results
CCCCc1ncc(/C=C(\Cc2cccs2)C(=O)O)n1Cc1ccc(C(=O)O)c(Cl)c1 | 1.04 nM | 0.12 mg/kg | 0.13 nM | 16 mg/kg | – | T1/2 (Rattus norvegicus [4]): 1.8 h
CCCCc1ncc(/C=C(\Cc2cccs2)C(=O)O)n1Cc1ccc(C(=O)O)c2ccccc12 | 11.8 nM | 0.05 mg/kg | – | 3.8 mg/kg | 2.42 h | IC50 [7]: 1.2 nM; IC50 [8]: 31 nM; Kb (Oryctolagus cuniculus [9]): 0.059 nM; TIME (Rattus norvegicus [10]): 3 h; Mean blood pressure (Canis familiaris [11]): 35 mmHg; Dose (Canis familiaris [12]): 10 mg/kg
CCCCc1ncc(/C=C(\Cc2cccs2)C(=O)O)n1Cc1ccccc1 | – | – | – | – | – | IC50 [13]: 440 nM
CCCCc1ncc(/C=C(\Cc2cccs2)C(=O)O)n1Cc1ccc(C(=O)O)c(Cl)c1Cl | 0.16 nM | 0.04 mg/kg | 0.18 nM | 5.4 mg/kg | 1.6 h | –
CCCCc1ncc(/C=C(\Cc2cccs2)C(=O)O)n1Cc1ccc(C(=O)O)cc1 [EPROSARTAN] | – | 0.08 mg/kg | 0.21 nM | 5.5 mg/kg | 1.42 h | IC50 [14]: 7.3 nM; IC50 [15]: 2 nM; TIME (Rattus norvegicus [10]): 0.5 h; Mean blood pressure (Canis familiaris [11]): 35 mmHg; Dose (Canis familiaris [16]): 10 mg/kg
CCCCc1ncc(/C=C(\Cc2cccs2)C(=O)O)n1Cc1ccc(C(=O)O)cc1Cl | 1.45 nM | 0.06 mg/kg | 0.02 nM | 2.4 mg/kg | 2.5 h | –
CCCCc1ncc(/C=C(\Cc2cccs2)C(=O)O)n1Cc1cc(Cl)c(C(=O)O)cc1Cl | 35.4 nM | 0.68 mg/kg | 1.58 nM | – | – | –
CCCCc1ncc(/C=C(\Cc2cccs2)C(=O)O)n1Cc1ccccc1Cl | – | – | – | – | – | IC50 [13]: 4530 nM
